From patent US5223507A, “Method of using opioid compounds as delta opioid selective agonist analgesics” (G. D. Searle & Co., priority 1992, dated 1993)
pIC50: −log10 of the molar value. Where a name gives a salt, the structure may show the parent alone. Read-outs that look alike come from different tables or passages of the source.

Tests used:
δ opioid receptors = δ opioid receptors (Rattus norvegicus, UniProt P33533); assay: Opiate Binding Assay, displacement of 3[H]-DSLET (δ receptor); details: for Mean IC50 μ/δ Ratio: ratio of mean IC50 values for μ and δ opioid receptors; for Percent Inhibition, delta: rat forebrain membranes, 3[H]-DSLET
μ opioid receptors = μ opioid receptors (Rattus norvegicus, UniProt P33535); assay: Opiate Binding Assay, displacement of 3[H]-DAMGO (μ receptor); details: for Percent Inhibition, mu: at 100 nm, rat forebrain membranes, 3[H]-DAMGO
mice = assay: Phenylbenzoquinone (PBQ) Writhing Assay; assay type: in vivo, mouse (Charles River male albino mice); details: for ED50: Mus musculus, 0.5 h
Description: The Writhing Assay is one of the most widely-used experimental procedures for measuring the analgesic activity of different narcotic and nonnarcotic analgesic agents, and involves the continuous, chemically-induced pain of visceral origin to an animal, such as a mouse or rat. [Gyires et al., Arch. int. Pharmacodyn, 267, 131-140 (1984); C. Vander Wende et al., Fed. Proc., 15, 494 (1956); Koster et al., Fed. Proc., 18, 412 (1959); and Witken et al., J. PharmacoI. exp. Tger., 133, 400-408 (1961).] Chemicals which may be used to induce this pain include phenylbenzoquinone (PBQ) and acetic acid. As a result of the chemical irritation to the animal, a characteristic stretching and writhing of the animal (dorsiflexion of the animal's back, extension of its hindlimbs and the strong contraction of its abdominal musculature) will generally occur. […] Drugs which reduce the number of writhes of the animal appear to restore the normal nociceptive threshold of the animal.
Charles River male albino mice, weighing 20 to 30 grams were used in this assay.
Thirty minutes after subcutaneous or intragastric administration to ten mice of either 10 mg or 30 mg per kilogram of body weight of a compound of the present invention ("test compound"), […] of body weight of a 0.025% w/v solution of PBQ was injected intraperitoneally into each mouse. Ten mice which were given saline in place of a test compound of the invention were used as a control group.
Five minutes later, each mouse was individually placed into a glass beaker for observation, and the number of writhes occurring during the following ten-minute period was counted.
A test compound was considered to be "active" in this assay (to have produced analgesia in a mouse) if, after the administration of the compound to the mouse, the number of writhes elicited by a mouse injected with PBQ was equal to, or less than, one-half the median number of writhes recorded for the saline-treated control group of mice that day, as described by Taber in "Predictive Value of Analgesic Assays in Mice and Rats," Advances in Biochemical Psychopharmacology, 8, 191 (1974).
The standard initial screening doses of a test compound employed in this assay were 10 and/or 30 […] for both routes of administration.

[1] = po, intragastric, 30 min before PBQ, read-out: PBQ WRITHING ASSAY ED50 (mpk) I.G.
[2] = sc, subcutaneous, 30 min before PBQ, read-out: PBQ WRITHING ASSAY ED50 (mpk) S.C.
[3] = intragastric, 30 min before PBQ
[4] = subcutaneous, screening doses 10 and/or 30 mpk

Chain of μ opioid receptors (P33535 whole entry): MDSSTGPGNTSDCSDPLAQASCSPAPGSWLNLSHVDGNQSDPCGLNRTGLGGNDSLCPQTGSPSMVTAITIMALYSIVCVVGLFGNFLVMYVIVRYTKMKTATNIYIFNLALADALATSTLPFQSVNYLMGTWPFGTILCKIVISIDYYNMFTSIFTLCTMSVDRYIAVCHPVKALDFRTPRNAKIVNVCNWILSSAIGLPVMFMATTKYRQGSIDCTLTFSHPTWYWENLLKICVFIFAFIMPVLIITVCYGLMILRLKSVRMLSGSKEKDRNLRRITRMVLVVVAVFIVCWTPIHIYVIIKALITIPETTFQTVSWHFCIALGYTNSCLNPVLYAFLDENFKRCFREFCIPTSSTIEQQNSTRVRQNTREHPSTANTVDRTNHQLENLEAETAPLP
Chain of δ opioid receptors (P33533 whole entry): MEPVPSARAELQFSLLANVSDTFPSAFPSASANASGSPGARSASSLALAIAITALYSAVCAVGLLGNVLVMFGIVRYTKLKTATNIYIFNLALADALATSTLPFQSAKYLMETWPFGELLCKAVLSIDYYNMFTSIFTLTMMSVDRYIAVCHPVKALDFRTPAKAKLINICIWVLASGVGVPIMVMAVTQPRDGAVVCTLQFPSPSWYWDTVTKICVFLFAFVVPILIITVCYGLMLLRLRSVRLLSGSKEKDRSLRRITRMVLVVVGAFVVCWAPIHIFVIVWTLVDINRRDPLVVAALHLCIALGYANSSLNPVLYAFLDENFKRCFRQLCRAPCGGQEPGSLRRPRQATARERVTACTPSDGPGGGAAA

Row | SMILES | pIC50 (δ opioid receptors) | Mean IC50 μ/δ Ratio (δ opioid receptors) | pIC50 (μ opioid receptors) | also measured
1 | CN1CC[C@]23c4c5ccc(O)c4O[C@H]2c2[nH]c4ccccc4c2C[C@@]3(O)[C@H]1C5 [I, 5,6,7,8,14,14bβ-Hexahydro-7-methyl-4,8(R,α)-methano-4bS^* -benzofuro[2,3-a]pyrido[4,3-b]carbazole-1, 8aβ(9H)-diol, monohydrochloride] | 8.59 | 58 | 6.82 | –
2 | CN1CC[C@]23c4c5ccc(O)c4O[C@H]2c2oc4ccccc4c2C[C@@]3(O)[C@H]1C5 [II, 6,7,8,14bβ-Tetrahydro-7-methyl-4,8(R,α)-methano-4bS^* -5H-bisbenzofuro[3,2-e:2',3'-g]isoquinoline-1, 8aβ(9H)-diol, monohydrochloride] | 8.27 | 17 | 7.03 | ED50 (mice; [1]): 2.4 mg/kg; ED50 (mice; [2]): 0.2 mg/kg
3 | CN1CC[C@]23c4c5ccc(O)c4O[C@H]2c2[nH]c4c(ccc6ccccc64)c2C[C@@]3(O)[C@H]1C5 [III, 5,6,7,8,16, 16bβ-Hexahydro-7-methyl-4,8(R, α)-methano-4BS^* -benzo[i]benzofuro [2,3-a]pyrido[4,3-b]carbazole-1,8aβ(9H)-diol, monohydrochloride] | 7.68 | 26 | 6.26 | PBQ WRITHING ASSAY ED50 (mpk) I.G. (mice; [3]): inactive; Number of mice in 10 exhibiting inhibition of writhing, S.C. (mice; [4]): 5/10
4 | COc1ccc2c3c1O[C@H]1c4oc5ccccc5c4C[C@@]4(OC)[C@@H](C2)N(C)CC[C@]314 [IV, 2 6,7,8,14bβ-Hexahydro-1,8aβ-(9H)-dimethoxy-7-methyl-4,8(R,α)-methano-4bS^* -5H-bisbenzofuro [3,2-e:2',3'-g]isoquinoline] | 7.36 | 446 | 4.67 | ED50 (mice; [1]): 2.2 mg/kg; Number of mice in 10 exhibiting inhibition of writhing, S.C. (mice; [4]): 6/10
5 | C=CCN1CC[C@]23c4c5ccc(O)c4O[C@H]2c2oc4ccccc4c2C[C@@]3(O)[C@H]1C5 [IX, 6,7,8,14β-Tetrahydro-7-(2-propenyl)-4,8(R,α)-methano-4bS^* -5H-bisbenzofuro[3,2-e:2',3'-g] isoquinoline-1,8aβ(9H)-diol, monohydrochloride] | 9.68 | 1100 | 6.63 | ED50 (mice; [1]): 3.9 mg/kg; ED50 (mice; [2]): 2.8 mg/kg
6 | COc1ccc2c3c1O[C@H]1c4oc5ccccc5c4C[C@@]4(O)[C@@H](C2)N(C)CC[C@]314 [V, 6,7,8,14bβ-Tetrahydro-1-methoxy-7-methyl-4,8(R,α)-methano-4bS^* -5H-bisbenzofuro [3,2-e:2',3'-g]isoquinolin-8aβ(9H)-ol] | – | – | – | Percent Inhibition, delta (δ opioid receptors; at 100 nm): 72%; ED50 (mice; [1]): 2.7 mg/kg; PBQ WRITHING ASSAY ED50 (mpk) S.C. (mice; subcutaneous, 30 min before PBQ): inactive; Percent Inhibition, mu (μ opioid receptors): 2%
7 | CN1CC[C@]23c4c5ccc(O)c4O[C@H]2c2[nH]c4c(Br)cc(Br)cc4c2C[C@@]3(O)[C@H]1C5 [VI, 11,13-Dibromo-5,6,7,8,14,14bβ-hexahydro-7-methyl-4,8(R,α)-methano-4bS^* -benzofuro[2,3-a]pyrido[4,3-b] carbazole-1,8aβ(9H)-diol, monohydrochloride] | – | – | – | Percent Inhibition, delta (δ opioid receptors; 10 nm): 11%; PBQ WRITHING ASSAY ED50 (mpk) I.G. (mice; [3]): inactive; Number of mice in 10 exhibiting inhibition of writhing, S.C. (mice; [4]): 6/10
8 | CN1CC[C@]23c4c5ccc(O)c4O[C@H]2c2[nH]c4c(Br)cccc4c2C[C@@]3(O)[C@H]1C5 [VII, 13-Bromo-5,6,7,8,14bβ-hexahydro-7-methyl-4,8(R,α)-methano-4bS^* -benzofuro[2,3-a]pyrido [4,3-b]carbazole-1,8aβ(9H)-diol, monohydrochloride] | 8.00 | 25.3 | 6.60 | ED50 (mice; [1]): 2.3 mg/kg; ED50 (mice; [2]): 0.9 mg/kg
9 | C=CCN1CC[C@]23c4c5ccc(O)c4O[C@H]2c2[nH]c4ccccc4c2C[C@@]3(O)[C@H]1C5 [VIII, 5,6,7,8,14,14bβ-Hexahydro-7(2-propenyl)-4,8 (R,α)-methano-4bS^* -benzofuro[2,3-a]pyrido[4,3-b] carbazole-1,8aβ(9H)-diol, monohydrochloride] | 8.85 | 71 | 7.00 | –
10 | C=CCN1CC[C@]23c4c5ccc(O)c4O[C@H]2c2[nH]c4c(Br)cccc4c2C[C@@]3(O)[C@H]1C5 [X, 13-Bromo-5,6,7,8,14, 14bβ-hexahydro-7-(2-propenyl)-4,8(R,α)-methano-4bS^* -benzofuro [2,3-a]pyrido[4,3-b]carbazole-1,8aβ(9H)-diol monohydrochloride] | 7.95 | 350 | 5.41 | Number of mice in 10 exhibiting inhibition of writhing, I.G. (mice; intragastric, screening doses 10 and/or 30 mpk): 5/10; Number of mice in 10 exhibiting inhibition of writhing, S.C. (mice; [4]): 5/10
11 | CN1CC[C@]23c4c5ccc(O)c4O[C@H]2c2oc4ccccc4c2C[C@H]3[C@H]1C5 [XI, 6,7,8,8a,9,14bβ-Hexahydro-7-methyl-4,8(R,α)-methano-4bs^* -5H-bisbenzofuro[3,2-e:2',3'-g] isoquinolin-1-ol, monohydrochloride] | 8.46 | 6.9 | 7.62 | ED50 (mice; [2]): 2 mg/kg; PBQ WRITHING ASSAY ED50 (mpk) I.G. (mice; [3]): inactive
12 | CN1CC[C@]23c4c5ccc(O)c4O[C@H]2c2[nH]c4ccccc4c2C[C@H]3[C@H]1C5 [XII, 5,6,7,8,8a,9,14, 14bβ-Octahydro-7-methyl-4,8(R,α)-methano-4bS^* -benzofuro[2,3-a] pyrido[4,3-b]carbazol-1-ol, monohydrochloride] | 8.31 | 11.8 | 7.24 | –
13 | CN1CC[C@]23c4c5ccc(O)c4O[C@H]2c2[nH]c4c(Br)cccc4c2C[C@H]3[C@H]1C5 [XIII, 13-Bromo-5,6,7,8,8a,9,14,14bβ-octahydro-7-methyl-4,8(R,α)-methano-4bS^* -benzofuro [2,3-a]pyrido[4,3-b]carbazol-1-ol, monohydrochloride] | 7.28 | 5.1 | 6.58 | PBQ WRITHING ASSAY ED50 (mpk) I.G. (mice; [3]): inactive; Number of mice in 10 exhibiting inhibition of writhing, S.C. (mice; [4]): 4/10
14 | CCCN1CC[C@]23c4c5ccc(O)c4O[C@H]2c2oc4ccccc4c2C[C@@]3(O)[C@H]1C5 [XIV, 6,7,8,14bβ-Tetrahydro-7-propyl-4,8(R,α)-methano-4bS^* -5H-bisbenzofuro[3,2-e:2',3'-g] isoquinoline-1,8aβ(9H)-diol, monohydrochloride] | 8.11 | 26 | 6.70 | –
15 | CC(=O)O[C@@]12Cc3c([nH]c4ccccc34)[C@@H]3Oc4c(O)ccc5c4[C@@]31CCN(C)[C@@H]2C5 [XIX, 5,6,7,8,14,14bβ-Hexahydro-7-methyl-4,8(R,α-methano-4bS^* -benzofuro[2,3-a]pyrido[4,3-b]carbazole-1,8aβ-9H)-dio1,8a-acetate monohydrochloride] | 9.00 | 769 | 6.11 | –
16 | Oc1ccc2c3c1O[C@H]1c4oc5ccccc5c4C[C@@]4(O)[C@@H](C2)N(CC2CCC2)CC[C@]314 [XV, 6,7,8,14bβ-Tetrahydro-7-(cyclobutylmethyl)-4,8 (R,α)-methano-4bS^* -5H-bisbenzofuro [3,2-e:2',3'-g]isoquinoline-1,8aβ(9H)-diol, monohydrochloride] | 8.29 | 135 | 6.16 | –
17 | CC(=O)Oc1ccc2c3c1O[C@H]1c4[nH]c5ccccc5c4C[C@@]4(O)[C@@H](C2)N(C)CC[C@]314 [XVII, 5,6,7,8,14,14bβ-Hexahydro-7-methyl-4,8 (R,α)-methano-4bS^* -benzofuro[2,3-a] pyrido[4,3-b]carbazole-1,8aβ(9H)-diol, 1-acetate] | 7.47 | 38 | 5.88 | –
18 | CC(=O)Oc1ccc2c3c1O[C@H]1c4[nH]c5ccccc5c4C[C@@]4(OC(C)=O)[C@@H](C2)N(C)CC[C@]314 [XVIII, 5,6,7,8,14,14bβ-Hexahydro-7-methyl-4,8(R,α)-methano-4bS^* -benzofuro[2,3-a] pyrido[4,3-b]carbazole-1,8aβ-9H)-diol, diacetate, monohydrochloride] | 7.18 | – | – | Percent Inhibition, mu (μ opioid receptors): 72%
